According to patent US20220153718A1, “SYNTHESIS OF STABLE AMORPHOUS APALUTAMIDE” (OLON S.P.A., priority 2019, published 2022):

Test: Solid-form stability under forced-air drying (XRPD)
Type: physicochemical
Settings: drying at 90° C. for over 100 hours, under vacuum, in a stove
Method: Forced-air drying here means drying at 90° C. for over 100 hours, under vacuum, in a stove.

Compound | Stability of the amorphous form after forced-air drying
CNC(=O)c1ccc(N2C(=S)N(c3cnc(C#N)c(C(F)(F)F)c3)C(=O)C23CCC3)cc1F [amorphous form obtained by evaporation of the solvent after ] [4-{7-[6-cyano-5-(trifluoromethyl)pyridin-3-yl]-8-oxo-6-sulphanylidene-5,7-diazaspiro[3,4]octan-5-yl}-2-fluoro-N-methylbenzamide] | converted to a mixture of amorphous form, form A and form B
CNC(=O)c1ccc(N2C(=S)N(c3cnc(C#N)c(C(F)(F)F)c3)C(=O)C23CCC3)cc1F [stable amorphous form of apalutamide, 4-{7-[6-cyano-5-(trifluoromethyl)pyridin-3-yl]-8-oxo-6-sulphanylidene-5,7-diazaspiro[3,4]octan-5-yl}-2-fluoro-N-methylbenzamide] | stable
